Results: patent US9464128B2, “Site-specific pegylated linear salmon calcitonin analogues” (INSTITUTE OF PHARMACOLOGY AND TOXICOLOGY ACADEMY OF …, priority 2007, dated 2016)

What was measured:
rats [1] = experiment: Calcium-reducing activity, subcutaneous injection to abdomens of rats (blood calcium determination); type: in vivo, rat
Description: The calcium-reducing activity of sCT(L)s and their PEGylated analogues was determined by administering them to abdomens of rats via subcutaneous injection, according to the method described in the literature (cf. Qian Deming, Shen Genquan, Ke Ruolun; Biological Assay of Calcitonin by Blood Calcium Determination in Rats, CHINESE JOURNAL OF PHARMACEUTICAL ANALYSIS, 1994, 14(3): 30-34).
The activity results as determined were listed as follows, while the reference activity of salmon calcitonin being 4500 IU/mg.

female Wistar rats [2] = experiment: Long-acting performance study: bone density of lumbar vertebrae, femur and tibia in castrated rats; type: in vivo, rat; settings: for Bone density, femur / Bone density, lumbar vertebrae / Bone density, tibia: 12th week, n = 10; for influence on bone density of lumbar vertebrae (in words): 12 weeks, high dose group of compound 12, positive contrast sCT group
Description: (§1) 60 female Wistar rats, body weight 250-280 g, 16 weeks aged, were randomly divided into six groups: pseudo-castrated contrast group (10 rats); castrated contrast group (10 rats); calcitonin group (10 rats, twice every week, 0.036 μg/kg body weight/time); a low dose group of compound 12 (10 rats, twice every week, 0.216 μg/kg body weight/time); a high dose group of compound (10 rats, twice every week, 1.08 μg/kg body weight/time); and a high dose group of compound (10 rats, once every week, 1.08 μg/kg body weight/time). In each of the groups, the administration was given subcutaneously. During the experiment, the rats in each of the groups freely fed on standard solid forage and drank water. Except for the high dose group of compound 12 with administration once every week, blood samples were respectively taken from the orbits of the rats in other groups at the 6th week of administration, and subjected to the determination of osteocalcin, serum calcium and alkaline phosphatase (Table 2). At the end of the 12th week of administration, in addition to osteocalcin, serum calcium and alkaline phosphatase (Table 3), the bone densities of lumbar vertebrae, tibia and femur in the rats of each of the groups were determined (Table 4).

female Wistar rats [3] = experiment: Long-acting performance study: bone metabolism (alkaline phosphatase, serum calcium, osteocalcin) in castrated rats; type: in vivo, rat; settings: for Alkaline phosphatase / Osteocalcin / Serum calcium: n = 10
Description: as §1

[4] = kidney homogenate; cited from earlier work
rats [5] = settings: reference standard; cited from earlier work
[6] = 6th week, 0.036 μg/kg s.c. twice every week
[7] = 12th week, 0.036 μg/kg s.c. twice every week
[8] = high dose 1.08 μg/kg s.c. once/week
[9] = high dose 1.08 μg/kg s.c. twice/week
[10] = low dose 0.216 μg/kg s.c. twice/week
[11] = 6th week, high dose 1.08 μg/kg s.c. twice every week
[12] = 6th week, low dose 0.216 μg/kg s.c. twice every week
[13] = 12th week, high dose 1.08 μg/kg s.c. twice every week
[14] = 12th week, low dose 0.216 μg/kg s.c. twice every week

[Val^1, Ala^7, Cys^16(mPEG5000-MAL), Des-19-22, Ala^30]sCT [Compound 14]
Activity (calcium-reducing activity) (rats [1]): 987 IU/mg

[Val^1,Cys^7(mPEG5000-MAL), Gln^11,Des-19-22, Ala^30]sCT [Compound 19]
Activity (calcium-reducing activity) (rats [1]): 815 IU/mg

[Val^1,Cys^7,Des-19-22,Ala^30]sCT [Compound 5]
Activity (calcium-reducing activity) (rats [1]): 67 IU/mg

[Val^1,Cys^7,Gln^11,18,Ala^30,Des-19-22]sCT [Compound 9]
Activity (calcium-reducing activity) (rats [1]): 920 IU/mg

[Val^1,Cys^7,Ala^30,Des-19]sCT [Compound 6]
Activity (calcium-reducing activity) (rats [1]): 4347 IU/mg

[Val^1,Ala^7,Gln^11,18,Cys^16(mPEG5000-MAL),Des-19-22,Ala^30]sCT [Compound 15]
Activity (calcium-reducing activity) (rats [1]): 301 IU/mg

[Val^1,Cys^7(mPEG5000-MAL),Des-19,Ala^30]sCT [Compound 13]
Activity (calcium-reducing activity) (rats [1]): 438 IU/mg

[Val^1,Cys^7,Gln^18,Ala^30,Des-19-22]sCT [Compound 7]
Activity (calcium-reducing activity) (rats [1]): 233 IU/mg

[Val^1,Ala^7,Cys^19(mPEG5000-MAL),Des-20-21, Ala^30]sCT [Compound 22]
Activity (calcium-reducing activity) (rats [1]): 1707 IU/mg

[Val^1,Cys^7(mPEG5000-MAL), Gln^18,Des-19-22, Ala^30]sCT [Compound 18]
Activity (calcium-reducing activity) (rats [1]): 763 IU/mg

[Val^1,Cys^7(mPEG5000-MAL), Gln^11,18,Des-19-22,Ala^30]sCT [Compound 20]
Activity (calcium-reducing activity) (rats [1]): 1265 IU/mg

[Val^1, Cys^7(mPEG5000-MAL),Des-19-22, Ala^30]sCT [Compound 16]
Activity (calcium-reducing activity) (rats [1]): 717 IU/mg

[Val^1,Cys^7,Gln^11,Ala^30,Des-19-22]sCT [Compound 8]
Activity (calcium-reducing activity) (rats [1]): 344 IU/mg

[D-Ala^1,Cys^7,D-Ala^30]sCT [Compound 1]
Activity (calcium-reducing activity) (rats [1]): 5202 IU/mg

[Val^1, Ala^7, Cys^19(mPEG5000-MAL),Des-20-22, Ala^30]sCT [Compound 21]
Activity (calcium-reducing activity) (rats [1]): 1208 IU/mg

[Val^1,Cys^7,Des-19,Ala^30]sCT [Compound 2]
Activity (calcium-reducing activity) (rats [1]): 1136 IU/mg

[Val^1,Ala^7,Gln^11,18,Cys^16,Ala^30,Des-19-22]sCT [Compound 4]
Activity (calcium-reducing activity) (rats [1]): 807 IU/mg

[Val^1,Ala^7,Cys^19,Ala^30,Des-20-21]sCT [Compound 11]
Activity (calcium-reducing activity) (rats [1]): 379 IU/mg

[Val^1,Ala^7,Cys^19,Ala^30,Des-20-22]sCT [Compound 10]
Activity (calcium-reducing activity) (rats [1]): 892 IU/mg

salmon calcitonin [reference compound]
Bone density, femur (female Wistar rats [2]; 0.036 μg/kg s.c. twice/week): 0.242 ± 0.027 g/cm^2 | Bone density, lumbar vertebrae (female Wistar rats [2]; 0.036 μg/kg s.c. twice/week): 0.181 ± 0.013 g/cm^2 | Bone density, tibia (female Wistar rats [2]; 0.036 μg/kg s.c. twice/week): 0.247 ± 0.127 g/cm^2 | influence on bone density of lumbar vertebrae (in words) (female Wistar rats [2]): increased the bone density of lumbar vertebrae | Alkaline phosphatase (female Wistar rats [3]; [6]): 179.8 ± 31.4 u/100 ml | Osteocalcin (female Wistar rats [3]; [6]): 3.90 ± 1.1 ng/100 ml | Serum calcium (female Wistar rats [3]; [6]): 9.3 ± 0.2 mg/100 ml | Alkaline phosphatase (female Wistar rats [3]; [7]): 200.9 ± 40.1 u/100 ml | Osteocalcin (female Wistar rats [3]; [7]): 3.38 ± 0.17 ng/100 ml | Serum calcium (female Wistar rats [3]; [7]): 9.3 ± 0.2 mg/100 ml | metabolic half life [4]: 4.8 min | reference activity of salmon calcitonin (rats [5]): 4500 IU/mg

[Val^1,Cys^7(mPEG5000-MAL),Des-19,Ala^30]sCT [Compound 17]
Activity (calcium-reducing activity) (rats [1]): 1921 IU/mg

[D-Ala^1,Cys^7(mPEG5000-MAL),D-Ala^30]sCT [Compound 12]
Bone density, lumbar vertebrae (female Wistar rats [2]; [8]): 0.182 ± 0.014 g/cm^2 | Bone density, tibia (female Wistar rats [2]; [8]): 0.251 ± 0.015 g/cm^2 | Bone density, femur (female Wistar rats [2]; [9]): 0.241 ± 0.017 g/cm^2 | Bone density, lumbar vertebrae (female Wistar rats [2]; [9]): 0.181 ± 0.018 g/cm^2 | Bone density, tibia (female Wistar rats [2]; [9]): 0.256 ± 0.017 g/cm^2 | Bone density, femur (female Wistar rats [2]; [10]): 0.240 ± 0.028 g/cm^2 | Bone density, lumbar vertebrae (female Wistar rats [2]; [10]): 0.175 ± 0.021 g/cm^2 | Bone density, tibia (female Wistar rats [2]; [10]): 0.245 ± 0.014 g/cm^2 | influence on bone density of lumbar vertebrae (in words) (female Wistar rats [2]): increased the bone density of lumbar vertebrae | Alkaline phosphatase (female Wistar rats [3]; [11]): 180.0 ± 19.4 u/100 ml | Osteocalcin (female Wistar rats [3]; [11]): 3.81 ± 0.24 ng/100 ml | Serum calcium (female Wistar rats [3]; [11]): 9.2 ± 0.2 mg/100 ml | Alkaline phosphatase (female Wistar rats [3]; [12]): 187.0 ± 30.4 u/100 ml | Osteocalcin (female Wistar rats [3]; [12]): 3.77 ± 0.25 ng/100 ml | Serum calcium (female Wistar rats [3]; [12]): 9.8 ± 0.3 mg/100 ml | Alkaline phosphatase (female Wistar rats [3]; [13]): 188.2 ± 51.2 u/100 ml | Osteocalcin (female Wistar rats [3]; [13]): 3.95 ± 0.24 ng/100 ml | Serum calcium (female Wistar rats [3]; [13]): 9.4 ± 0.4 mg/100 ml | Alkaline phosphatase (female Wistar rats [3]; [14]): 202.4 ± 44.8 u/100 ml | Osteocalcin (female Wistar rats [3]; [14]): 4.01 ± 0.25 ng/100 ml | Serum calcium (female Wistar rats [3]; [14]): 9.8 ± 0.3 mg/100 ml | influence on bone metabolism of rats compared with sCT group (in words) (female Wistar rats [3]; high dose group, 6th and 12th weeks of administration): substantially equivalent to the positive contrast sCT group | Activity (calcium-reducing activity) (rats [1]): 1467 IU/mg

[Val^1,Ala^7,Cys^16,Ala^30,Des-19-22]sCT [Compound 3]
Activity (calcium-reducing activity) (rats [1]): 3394 IU/mg
